One data set relates to miR-193a. As to the kind of experiment: miR-193a expression levels in Fadu cells by quantitative real-time PCR. Format: cell-based, Homo sapiens. The conditions noted are these: 5 μM, 48 hours, U6 normalization, vs 0.01% DMSO control. Here is the method: FIG. 8 includes a vertical bar graph showing Real-time analysis of miRNA expression patterns in Fadu Cells. The expression levels of miRNAs; hsa-mir193a were analysed using Quantitative real-time PCR, following 5-aza-2′ -deoxycytidine cell treatment. Data represented as average of three independent experiments conducted in triplicates (mean±SD) and U6 was used as normalization. Statistical significance determined by a two-tailed Student's t-test. Significance was determined as follows: ***P<0.01.
miRNA was isolated using mirVana™ miRNA Isolation Kit (Ambion®) according the manufacturer's protocol, the mirVana™ kit utilizes two sequential GFFs, since the small […]
The concentration and purity of miRNA was assessed using NanoDrop™ lite spectrophotometer (NanodropTechnologies, Willmington, Del., USA). miRNA expression profiling was performed using the TaqMan microRNA arrays system (Applied Biosystems) with specific TaqMan primers and probes for miR-193a. cDNA was generated using TaqMan microRNA assay using Primers for the mir-193a with FAM/MGB. […] Real time PCR was carried out with Rotor Gene 6000 Real-Time PCR Machine-Bosch-Bosch, results were analyzed with delta delta Ct (ΔΔCt) method using the rotor Gene 6000 Real-Time PCR software. […]
miRNA were isolated, quantified, profiled and cDNA was generated. […]
In general terms: Quantitative PCR measures a nucleic acid by following its amplification.

In data set [1] the test system is Fadu cells. The experiment in a line: XTT cell viability after transient transfection of Fadu cells. Format: cell-based. The settings on record: 1 μg plasmid, 48 hours post transfection, viability reduced to. As for the experimental part: FIG. 2 includes a vertical bar graph of cell viability following miR-193a-5p plasmid transfection. Squamous cancer cells Fadu were transfected with pCMV-miR-193a, or with p-CMV-GFP (MOC plasmid), 48 hours post transfection. cell viability was detected by XTT. Presented data are means±SD of three experiments, each conducted in eight replicates, and are expressed as percentages of the respective control. ***P<0.001(Dunnett's test).
FIG. 3 includes a vertical bar graph of cell viability following miR-193a-5p plasmid transfection time course experiment. Squamous cancer cells Fadu were transfected with miR-193a-5p or with MOC plasmid, 24 hours, 48 hours and 72 hours post transfection. cell viability was detected by XTT. Presented data are means±SD of three experiments, each conducted in eight replicates, and are expressed as percentages of the respective control. Statistical significance determined by a two-tailed student's t-test. Significance was determined as follows: *P<0.05, **P<0.01 and ***P<0.001.
Fadu Cells were seeded in a 96 well plate (3×10^4 cells/well). […]
At the end of treatment, cell viability was measured using XTT. The data presented are average of at least three independent experiments; 8 repeats each (means±SEM), and are expressed as percentage of the respective vehicle treated control. […]
In general terms: Formazan colour is commonly taken as a measure of viable cells.

Data set [2] concerns Fadu cells. The experiment in a line: Fadu xenograft tumor growth in athymic nude mice. Format: in vivo. The conditions noted are these: tumors harvested 21 days post treatment, P<0.0001. As for the experimental part: FIG. 6 includes a graph presenting data from 16 athymic nude male mice which were subcutaneously injected with 1×10^6 Fadu cells. When the tumors reached a volume of 200 mm^3 the mice were divided into 2 groups of 8 mice each, with a similar dispersal of tumor volumes. Mice were injected once a week with intraperitoneal (IP) injection of either PBS×1 to the control group, or 1×10^10 vp AD-miR-193a, for 3 weeks. During the experiments, tumor volumes were measured twice a week using caliber meter. The results presented are the mean±SE. n=8 mice per experimental group.
FIGS. 7A-7B include vertical bar graphs showing the effect of miR-193a on final tumor weight (7A) and volume (7B). The results presented are the mean±SE. n=8 tumors per experimental group. Statistical significance for tumor weight determined by Mann-Whitney and for tumor volume by two-tailed Student's t-test (treatment vs. control). ***P<0.01.
Xenograft animal model were generated via injection of 1×10^6 Fadu cells in Matrigel subcutaneous in athymic nude mice immunodeficient mice. When the tumors reached a volume of 200 mm^3 the mice were divided into 2 groups of 8 mice each, with a similar dispersal of tumor volumes. […]
Tumors were measured by electronic calliper, once a week. 21 days post treatment the tumors were harvested and weight was measured.
The animals were sacrificed, and the tumors were removed, weighed and measured. […]

The text below walks through data of patent US20220296629A1, “HUMAN HEAD AND NECK CANCER TREATMENT” (CARMEL HAIFA […] CORPORATION LTD., priority 2019, published 2022).

As to `Nc1ncn([C@H]2C[C@H](O)[C@@H](CO)O2)c(=O)n1` [5-aza, 5-aza-2′ -deoxycytidine], the “Increase in miR-193a expression levels” value with miR-193a is recorded as 132 folds.
With “miR-193a: Homo sapiens miR-193a, SEQ ID NO:1 UGGGUCUUUGCGGGCGAGAUGA; delivered as CMV plasmid or adenovirus AD-miR-193a (listed as Homo sapiens)”, the “Cell viability (XTT), percentage of control” value with Fadu cells [1] (first experiment) is “approximately 70%”. The “Cell viability (XTT), percentage of control” value with Fadu cells [1] (second and third experiment) is approximately 40%. In addition, in the data set with Fadu cells [2], the “Final tumor volume vs control” value is recorded as “significantly reduced” and the “Final tumor weight vs control” value was “significantly reduced”.
